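Five compound concentrations were applied to cells in 96-well plates for 48 hours; endpoints were derived by simple linear interpolation of the resulting dose-response curve. Definition used: TGI = concentration required for complete inhibition of growth.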
Experiments:
Assay in all cases: DTP human tumour cell line panel, 48 h
[1] = test system: SNB-75 CNS
[2] = test system: HOP-92 NSCLC
[3] = test system: SF-295 CNS
[4] = test system: BT-549 breast
[5] = test system: M14 melanoma
[6] = test system: HS 578T breast
[7] = test system: HOP-62 NSCLC
[8] = test system: A498 renal
[9] = test system: A549 NSCLC
[10] = test system: SW-620 colon
[11] = test system: MOLT-4 leukemia
[12] = test system: U251 CNS
[13] = test system: ACHN renal

Measured: TGI

C#CC1(O)CCC2[C@@H]3CCc4cc(Oc5nc(F)nc(-c6c(C)c(C(=O)OCC)n7ccccc67)n5)ccc4C3CC[C@@]21C (stereo partly drawn)
> 100 µM: all assays above
